Measured values: ChEMBL document CHEMBL3045592, “Studies of O,O-dimethyl α-(2,4-dichlorophenoxyacetoxy)ethylphosphonate (HW02) as a new herbicide. 1. Synthesis and herbicidal activity of HW02 and analogues as novel inhibitors of pyruvate dehydrogenase complex” (J Agric Food Chem, 2011)

Key:
Oryza sativa = test: Inhibition of PDHc in Oryza sativa (rice) shoot mitochondria assessed as decrease in rate of NADH formation using sodium pyruvate as substrate at 1 microg/g preincubated for 25 min before substrate addition measured after 1 min by spectrophotometric assay
Chenopodium album = test: Pre-emergence herbicidal activity against Chenopodium album assessed as growth inhibition at 150 ai g/ha after 20 days by green house test; format: functional
Setaria viridis = test: Pre-emergence herbicidal activity against Setaria viridis (green foxtail) assessed as growth inhibition at 450 ai g/ha after 20 days by green house test; format: functional
Portulaca oleracea [1] = test: Post-emergence herbicidal activity against Portulaca oleracea assessed as growth inhibition at 300 ai g/ha after 20 days by green house test; format: functional
Medicago sativa [2] = test: Post-emergence herbicidal activity against Medicago sativa (alfalfa) assessed as growth inhibition at 300 ai g/ha after 20 days by green house test; format: functional
Abutilon theophrasti [3] = test: Pre-emergence herbicidal activity against Abutilon theophrasti (velvetleaf) assessed as growth inhibition at 450 ai g/ha after 20 days by green house test; format: functional
Amaranthus spinosus = test: Post-emergence herbicidal activity against Amaranthus spinosus assessed as growth inhibition at 75 ai g/ha after 20 days by green house test; format: functional
Digitaria sanguinalis [4] = test: Post-emergence herbicidal activity against Digitaria sanguinalis (hairy crabgrass) assessed as growth inhibition at 300 ai g/ha after 20 days by green house test; format: functional
Cardamine hirsuta = test: Post-emergence herbicidal activity against Cardamine hirsuta assessed as growth inhibition at 18.75 ai g/ha after 20 days by green house test; format: functional
Portulaca oleracea [5] = test: Post-emergence herbicidal activity against Portulaca oleracea assessed as growth inhibition at 37.5 ai g/ha after 20 days by green house test; format: functional
Amaranthus retroflexus [6] = test: Post-emergence herbicidal activity against Amaranthus retroflexus assessed as growth inhibition at 150 ai g/ha after 20 days by green house test; format: functional
Daucus carota = test: Post-emergence herbicidal activity against Daucus carota (carrot) assessed as growth inhibition at 150 ai g/ha after 20 days by green house test; format: functional
Cucumis sativus [7] = test: Herbicidal activity against Cucumis sativus Jin 4 (cucumber) assessed as inhibition of stem growth after 3 days; format: functional, organism-based; details: Jin 4, 72 h
Pisum sativum = test: Post-emergence herbicidal activity against Pisum sativum Zhongwan-2 (pea) assessed as growth inhibition at 450 ai g/ha after 20 days by green house test; details: Lathyrus oleraceus
[8] = target: Pyruvate dehydrogenase complex (Pisum sativum) (UniProt P52902+P52904); test: Inhibition of PDHc in Pisum sativum Zhongwan-2 (pea) shoot mitochondria assessed as decrease in rate of NADH formation using sodium pyruvate as substrate at 0.1 microg/g preincubated for 25 min before substrate addition measured after 1 min by spectrophotometric assay; format: protein-complex assay; details: Lathyrus oleraceus
[9] = target: T1, Pyruvate dehydrogenase complex (Pisum sativum, UniProt P52902+P52904); test: Inhibition of PDHc in Pisum sativum Zhongwan-2 (pea) shoot mitochondria assessed as decrease in rate of NADH formation using sodium pyruvate as substrate preincubated for 25 min before substrate addition measured after 1 min by spectrophotometric assay; format: protein-complex assay, Lathyrus oleraceus
T1 sequence (P52902 whole entry): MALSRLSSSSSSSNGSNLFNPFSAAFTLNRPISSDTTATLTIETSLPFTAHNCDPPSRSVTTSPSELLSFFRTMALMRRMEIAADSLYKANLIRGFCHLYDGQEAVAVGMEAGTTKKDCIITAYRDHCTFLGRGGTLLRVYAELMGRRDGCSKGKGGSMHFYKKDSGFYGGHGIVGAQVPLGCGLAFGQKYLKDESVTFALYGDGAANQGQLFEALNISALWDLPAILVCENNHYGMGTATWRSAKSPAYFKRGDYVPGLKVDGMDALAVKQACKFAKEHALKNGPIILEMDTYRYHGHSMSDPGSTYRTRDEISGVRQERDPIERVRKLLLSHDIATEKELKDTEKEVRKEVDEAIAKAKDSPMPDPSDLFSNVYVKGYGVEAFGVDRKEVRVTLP
T1 sequence (P52904 whole entry): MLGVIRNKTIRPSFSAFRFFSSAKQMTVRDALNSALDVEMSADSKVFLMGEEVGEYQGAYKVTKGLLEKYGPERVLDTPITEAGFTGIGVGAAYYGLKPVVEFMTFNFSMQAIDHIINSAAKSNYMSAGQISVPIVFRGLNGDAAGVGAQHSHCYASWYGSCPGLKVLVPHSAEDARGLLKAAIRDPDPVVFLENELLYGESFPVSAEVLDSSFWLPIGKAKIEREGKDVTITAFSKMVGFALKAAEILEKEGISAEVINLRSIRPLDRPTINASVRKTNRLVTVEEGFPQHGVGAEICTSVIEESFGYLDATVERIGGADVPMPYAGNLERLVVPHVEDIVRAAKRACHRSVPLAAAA

Digitaria sanguinalis [10] = test: Pre-emergence herbicidal activity against Digitaria sanguinalis (hairy crabgrass) assessed as growth inhibition at 75 ai g/ha after 20 days by green house test; format: functional
Amaranthus retroflexus [11] = test: Post-emergence herbicidal activity against Amaranthus retroflexus assessed as growth inhibition at 37.5 ai g/ha after 20 days by green house test; format: functional
Medicago sativa [12] = test: Pre-emergence herbicidal activity against Medicago sativa (alfalfa) assessed as growth inhibition at 1500 ai g/ha after 20 days by green house test; format: functional
Cucumis sativus [13] = test: Herbicidal activity against Cucumis sativus Jin 4 (cucumber) assessed as inhibition of root growth after 3 days; format: functional, organism-based; details: Jin 4, 72 h
Echinochloa crus-galli [14] = test: Post-emergence herbicidal activity against Echinochloa crus-galli (barnyard grass) assessed as growth inhibition at 300 ai g/ha after 20 days by green house test; format: functional
Digitaria sanguinalis [15] = test: Post-emergence herbicidal activity against Digitaria sanguinalis (hairy crabgrass) assessed as growth inhibition at 18.75 ai g/ha after 20 days by green house test; format: functional
[16] = system: Brassica rapa subsp. oleifera; test: Post-emergence herbicidal activity against Brassica rapa subsp. oleifera Si Yue Man assessed as growth inhibition at 150 ai g/ha after 20 days by green house test; format: functional
Abutilon theophrasti [17] = test: Post-emergence herbicidal activity against Abutilon theophrasti (velvetleaf) assessed as growth inhibition at 150 ai g/ha after 20 days by green house test; format: functional
Echinochloa crus-galli [18] = test: Post-emergence herbicidal activity against Echinochloa crus-galli (barnyard grass) assessed as growth inhibition at 37.5 ai g/ha after 20 days by green house test; format: functional
[19] = system: Brassica rapa subsp. oleifera; test: Post-emergence herbicidal activity against Brassica rapa subsp. oleifera Si Yue Man assessed as growth inhibition at 75 ai g/ha after 20 days by green house test; format: functional
Eclipta prostrata [20] = test: Post-emergence herbicidal activity against Eclipta prostrata assessed as growth inhibition at 450 ai g/ha after 20 days by green house test; format: functional
Eclipta prostrata [21] = test: Post-emergence herbicidal activity against Eclipta prostrata assessed as growth inhibition at 225 ai g/ha after 20 days by green house test; format: functional
Echinochloa crus-galli [22] = test: Post-emergence herbicidal activity against Echinochloa crus-galli (barnyard grass) assessed as growth inhibition at 18.75 ai g/ha after 20 days by green house test; format: functional
Brassica juncea = test: Post-emergence herbicidal activity against Brassica juncea assessed as growth inhibition at 450 ai g/ha after 20 days by green house test; format: functional

SMILES | growth inhibition (GI) (Chenopodium album) | growth inhibition (GI) (Setaria viridis) | growth inhibition (GI) (Abutilon theophrasti [3]) | growth inhibition (GI) (Amaranthus spinosus) | IC50 (Cucumis sativus [7]) | growth inhibition (GI) (Pisum sativum) | inhibition [8] | IC50 [9] | growth inhibition (GI) (Digitaria sanguinalis [10]) | growth inhibition (GI) (Medicago sativa [12]) | IC50 (Cucumis sativus [13]) | growth inhibition (GI) (Abutilon theophrasti [17]) | growth inhibition (GI) (Brassica juncea) | other results
COP(=O)(OC)C(C)OC(=O)COc1ccc(Cl)cc1Cl (stereo not drawn) [CLACYFOS] | 0% | 35% | 0% | 90% | 7.56 µM | 97.5% | 31.1% | 18.2 µM | 0% | 90% | 0.0025 µM | 100% | 100% | inhibition (Oryza sativa): 8.2%; growth inhibition (GI) (Portulaca oleracea [1]): 95%; growth inhibition (GI) (Medicago sativa [2]): 97%; growth inhibition (GI) (Digitaria sanguinalis [4]): 32%; growth inhibition (GI) (Cardamine hirsuta): 75%; growth inhibition (GI) (Portulaca oleracea [5]): 65%; growth inhibition (GI) (Amaranthus retroflexus [6]): 96%; growth inhibition (GI) (Daucus carota): 95%; growth inhibition (GI) (Amaranthus retroflexus [11]): 82.5%; growth inhibition (GI) (Echinochloa crus-galli [14]): 20%; growth inhibition (GI) (Digitaria sanguinalis [15]): 0%; growth inhibition (GI) [16]: 97%; growth inhibition (GI) (Echinochloa crus-galli [18]): 0%; growth inhibition (GI) [19]: 92.5%; growth inhibition (GI) (Eclipta prostrata [20]): 100%; growth inhibition (GI) (Eclipta prostrata [21]): 96%; growth inhibition (GI) (Echinochloa crus-galli [22]): 0%
O=C(O)COc1ccc(Cl)cc1Cl [2,4-DICHLOROPHENOXYACETIC ACID] | 0% | 67.5% | 0% | 60% | 10.1 µM | – | 8.8% | > 4530 µM | 0% | 90% | 0.228 µM | 100% | 100% | –
COP(=O)(COC(=O)COc1cccc(C(F)(F)F)c1)OC | 0% | 35% | 0% | 0% | – | 10% | 11.5% | 442 µM | 0% | 75% | – | 42.5% | 82.5% | –
